Calls of active or inactive are those of the source. Cut-off read from the data, not from the text of the source, for most assays here: actives have a measured Kd and inactives only a lower limit.
Legend:
[1] = target: Bone morphogenetic protein receptor type-1B (Homo sapiens, UniProt O00238)
[2] = target: T1, Cytochrome c1, heme protein, mitochondrial (Homo sapiens, UniProt P08574)
T1 sequence (P08574 whole entry): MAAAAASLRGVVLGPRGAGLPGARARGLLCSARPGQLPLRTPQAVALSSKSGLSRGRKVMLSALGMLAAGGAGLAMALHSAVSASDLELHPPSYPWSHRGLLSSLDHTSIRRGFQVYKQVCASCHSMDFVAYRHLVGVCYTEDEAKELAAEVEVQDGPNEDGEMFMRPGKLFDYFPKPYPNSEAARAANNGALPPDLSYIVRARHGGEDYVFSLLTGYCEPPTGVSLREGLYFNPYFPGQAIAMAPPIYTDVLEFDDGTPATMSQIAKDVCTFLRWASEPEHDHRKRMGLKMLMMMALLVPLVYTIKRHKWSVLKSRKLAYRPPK

[3] = target: ATP-dependent RNA helicase DDX3X (Homo sapiens, UniProt O00571)
Ephrin type-A receptor 5 = Ephrin type-A receptor 5 (Homo sapiens, UniProt P54756)
Chain of Ephrin type-A receptor 5 (P54756 whole entry): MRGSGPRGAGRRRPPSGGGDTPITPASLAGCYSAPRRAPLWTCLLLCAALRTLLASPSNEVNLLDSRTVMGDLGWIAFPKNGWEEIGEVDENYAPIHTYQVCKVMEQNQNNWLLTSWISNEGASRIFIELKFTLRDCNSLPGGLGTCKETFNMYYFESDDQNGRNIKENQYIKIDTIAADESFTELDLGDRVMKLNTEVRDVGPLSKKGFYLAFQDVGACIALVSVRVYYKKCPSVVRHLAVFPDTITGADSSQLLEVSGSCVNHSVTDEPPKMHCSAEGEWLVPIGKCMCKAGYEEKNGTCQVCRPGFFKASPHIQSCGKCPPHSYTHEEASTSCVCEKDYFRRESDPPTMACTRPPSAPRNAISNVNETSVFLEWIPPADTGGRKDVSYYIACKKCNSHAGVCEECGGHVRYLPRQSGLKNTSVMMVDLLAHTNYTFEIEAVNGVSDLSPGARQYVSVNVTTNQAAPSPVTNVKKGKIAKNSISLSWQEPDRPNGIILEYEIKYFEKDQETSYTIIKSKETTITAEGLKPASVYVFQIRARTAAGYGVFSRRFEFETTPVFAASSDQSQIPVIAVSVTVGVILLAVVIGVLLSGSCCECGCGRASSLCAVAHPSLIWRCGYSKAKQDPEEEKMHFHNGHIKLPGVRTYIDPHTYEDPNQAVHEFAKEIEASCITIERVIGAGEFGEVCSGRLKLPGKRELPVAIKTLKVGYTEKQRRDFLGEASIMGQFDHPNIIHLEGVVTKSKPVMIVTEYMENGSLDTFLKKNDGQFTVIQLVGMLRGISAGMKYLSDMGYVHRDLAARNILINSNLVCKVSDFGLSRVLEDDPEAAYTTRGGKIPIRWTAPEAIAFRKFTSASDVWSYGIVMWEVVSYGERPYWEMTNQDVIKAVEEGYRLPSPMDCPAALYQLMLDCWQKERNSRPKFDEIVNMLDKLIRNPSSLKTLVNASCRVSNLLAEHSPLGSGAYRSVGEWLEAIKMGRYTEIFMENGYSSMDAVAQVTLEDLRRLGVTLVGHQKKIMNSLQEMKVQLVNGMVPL

[4] = target: T2, Ferrochelatase, mitochondrial (Homo sapiens, UniProt P22830)
T2 sequence (P22830 whole entry): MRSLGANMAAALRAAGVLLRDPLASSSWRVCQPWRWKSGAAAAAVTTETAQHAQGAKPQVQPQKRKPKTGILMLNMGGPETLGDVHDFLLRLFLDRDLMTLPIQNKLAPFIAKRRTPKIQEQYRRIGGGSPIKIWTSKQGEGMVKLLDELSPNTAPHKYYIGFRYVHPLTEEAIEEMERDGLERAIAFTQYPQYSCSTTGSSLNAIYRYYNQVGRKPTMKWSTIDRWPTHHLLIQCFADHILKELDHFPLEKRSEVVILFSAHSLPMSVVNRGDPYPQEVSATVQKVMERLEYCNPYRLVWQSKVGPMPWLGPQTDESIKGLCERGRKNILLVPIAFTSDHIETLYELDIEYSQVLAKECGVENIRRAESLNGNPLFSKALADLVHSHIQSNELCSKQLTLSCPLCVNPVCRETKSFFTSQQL

[5] = target: Fibroblast growth factor receptor 1 (Homo sapiens, UniProt P11362)
[6] = target: Tyrosine-protein kinase FRK (Homo sapiens, UniProt P42685)
LIM domain kinase 2 = LIM domain kinase 2 (Homo sapiens, UniProt P53671)
Chain of LIM domain kinase 2 (P53671 whole entry, the tested form may be a part): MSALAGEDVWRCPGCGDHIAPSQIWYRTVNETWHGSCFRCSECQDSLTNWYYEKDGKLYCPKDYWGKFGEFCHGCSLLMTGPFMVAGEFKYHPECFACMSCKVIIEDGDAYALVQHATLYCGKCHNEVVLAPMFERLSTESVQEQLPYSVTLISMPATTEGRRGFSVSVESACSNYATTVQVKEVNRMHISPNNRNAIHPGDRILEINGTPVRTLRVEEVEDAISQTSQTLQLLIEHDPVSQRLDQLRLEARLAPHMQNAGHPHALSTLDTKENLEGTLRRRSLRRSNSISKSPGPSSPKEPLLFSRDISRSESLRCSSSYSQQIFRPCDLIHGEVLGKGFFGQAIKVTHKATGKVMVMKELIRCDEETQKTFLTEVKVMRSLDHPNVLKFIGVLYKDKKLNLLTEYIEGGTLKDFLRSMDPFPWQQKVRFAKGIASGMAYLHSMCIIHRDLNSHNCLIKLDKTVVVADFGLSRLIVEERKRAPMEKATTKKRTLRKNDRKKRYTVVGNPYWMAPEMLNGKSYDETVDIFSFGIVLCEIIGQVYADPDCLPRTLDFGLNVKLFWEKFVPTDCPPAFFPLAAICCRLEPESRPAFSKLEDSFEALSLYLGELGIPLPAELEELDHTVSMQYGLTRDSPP

[7] = target: MAP/microtubule affinity-regulating kinase 3 (Homo sapiens, UniProt P27448)
Chain of MAP/microtubule affinity-regulating kinase 3 (P27448 whole entry): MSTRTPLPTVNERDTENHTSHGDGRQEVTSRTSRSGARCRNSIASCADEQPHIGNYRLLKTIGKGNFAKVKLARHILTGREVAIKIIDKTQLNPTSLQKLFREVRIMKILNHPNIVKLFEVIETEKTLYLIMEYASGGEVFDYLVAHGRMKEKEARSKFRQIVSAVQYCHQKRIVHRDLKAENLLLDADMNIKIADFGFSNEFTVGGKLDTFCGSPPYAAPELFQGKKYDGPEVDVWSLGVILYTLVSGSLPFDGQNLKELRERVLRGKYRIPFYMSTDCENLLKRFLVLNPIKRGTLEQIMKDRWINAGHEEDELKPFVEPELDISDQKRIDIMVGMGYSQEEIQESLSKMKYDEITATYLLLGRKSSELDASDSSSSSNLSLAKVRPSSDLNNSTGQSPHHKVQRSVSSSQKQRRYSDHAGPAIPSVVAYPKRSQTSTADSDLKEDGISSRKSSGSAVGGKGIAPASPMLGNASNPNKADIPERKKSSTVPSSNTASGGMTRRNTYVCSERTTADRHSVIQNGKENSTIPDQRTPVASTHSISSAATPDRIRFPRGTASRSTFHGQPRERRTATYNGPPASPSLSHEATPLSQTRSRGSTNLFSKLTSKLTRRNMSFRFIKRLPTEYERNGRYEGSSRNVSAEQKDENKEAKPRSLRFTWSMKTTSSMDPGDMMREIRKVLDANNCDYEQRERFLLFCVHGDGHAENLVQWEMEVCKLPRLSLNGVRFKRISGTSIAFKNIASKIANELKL

Midasin = Midasin (Homo sapiens, UniProt Q9NU22)
Myosin-14 = Myosin-14 (Homo sapiens, UniProt Q7Z406)
Chain of Myosin-14 (Q7Z406 whole entry): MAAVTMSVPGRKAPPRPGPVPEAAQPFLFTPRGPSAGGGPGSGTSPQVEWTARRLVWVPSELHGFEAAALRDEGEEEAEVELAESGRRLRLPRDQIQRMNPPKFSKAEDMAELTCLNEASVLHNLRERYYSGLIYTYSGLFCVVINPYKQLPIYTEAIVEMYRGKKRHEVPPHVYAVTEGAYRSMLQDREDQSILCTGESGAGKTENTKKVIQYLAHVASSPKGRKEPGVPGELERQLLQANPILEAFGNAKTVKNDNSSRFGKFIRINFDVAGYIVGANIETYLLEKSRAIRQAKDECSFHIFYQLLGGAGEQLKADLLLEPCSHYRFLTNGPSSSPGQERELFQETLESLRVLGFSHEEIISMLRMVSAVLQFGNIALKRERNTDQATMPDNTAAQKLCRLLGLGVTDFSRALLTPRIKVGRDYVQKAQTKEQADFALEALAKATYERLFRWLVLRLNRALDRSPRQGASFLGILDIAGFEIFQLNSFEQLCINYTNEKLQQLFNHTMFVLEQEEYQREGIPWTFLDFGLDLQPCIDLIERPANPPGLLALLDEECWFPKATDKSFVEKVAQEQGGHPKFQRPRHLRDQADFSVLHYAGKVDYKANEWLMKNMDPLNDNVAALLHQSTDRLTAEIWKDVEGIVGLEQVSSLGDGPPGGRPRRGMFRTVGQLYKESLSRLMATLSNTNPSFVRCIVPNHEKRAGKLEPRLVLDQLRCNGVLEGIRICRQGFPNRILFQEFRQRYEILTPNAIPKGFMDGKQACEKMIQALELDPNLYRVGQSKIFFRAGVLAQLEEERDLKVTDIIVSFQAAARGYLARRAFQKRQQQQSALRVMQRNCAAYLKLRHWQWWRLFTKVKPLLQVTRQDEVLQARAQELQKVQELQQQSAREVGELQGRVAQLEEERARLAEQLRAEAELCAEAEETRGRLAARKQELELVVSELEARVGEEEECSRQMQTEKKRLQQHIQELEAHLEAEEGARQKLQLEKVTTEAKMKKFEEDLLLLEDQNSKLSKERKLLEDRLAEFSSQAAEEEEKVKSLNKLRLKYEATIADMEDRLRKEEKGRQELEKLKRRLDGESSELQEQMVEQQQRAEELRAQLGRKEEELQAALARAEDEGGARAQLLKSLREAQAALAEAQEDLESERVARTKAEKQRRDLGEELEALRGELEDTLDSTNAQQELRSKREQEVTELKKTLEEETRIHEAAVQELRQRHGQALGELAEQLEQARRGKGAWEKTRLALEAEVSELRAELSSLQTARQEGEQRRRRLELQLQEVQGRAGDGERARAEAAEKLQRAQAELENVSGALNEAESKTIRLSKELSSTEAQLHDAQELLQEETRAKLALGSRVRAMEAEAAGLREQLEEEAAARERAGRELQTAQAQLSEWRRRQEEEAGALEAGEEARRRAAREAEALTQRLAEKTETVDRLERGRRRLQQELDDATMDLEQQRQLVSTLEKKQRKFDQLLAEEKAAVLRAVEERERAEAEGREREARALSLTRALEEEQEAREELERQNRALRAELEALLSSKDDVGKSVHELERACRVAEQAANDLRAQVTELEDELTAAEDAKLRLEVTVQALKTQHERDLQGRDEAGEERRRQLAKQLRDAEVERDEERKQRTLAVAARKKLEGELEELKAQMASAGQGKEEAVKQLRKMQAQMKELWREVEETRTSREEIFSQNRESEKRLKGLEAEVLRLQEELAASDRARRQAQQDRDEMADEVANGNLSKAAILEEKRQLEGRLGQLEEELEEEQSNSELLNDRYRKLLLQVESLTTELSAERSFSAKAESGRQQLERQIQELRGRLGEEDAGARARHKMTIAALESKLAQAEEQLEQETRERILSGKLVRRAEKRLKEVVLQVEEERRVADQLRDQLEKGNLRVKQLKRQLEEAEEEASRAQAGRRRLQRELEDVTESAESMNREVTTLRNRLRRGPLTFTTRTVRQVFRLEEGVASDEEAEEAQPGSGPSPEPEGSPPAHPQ

[8] = target: T3, Ras-related protein Rab-10 (Homo sapiens, UniProt P61026)
T3 sequence (P61026 whole entry): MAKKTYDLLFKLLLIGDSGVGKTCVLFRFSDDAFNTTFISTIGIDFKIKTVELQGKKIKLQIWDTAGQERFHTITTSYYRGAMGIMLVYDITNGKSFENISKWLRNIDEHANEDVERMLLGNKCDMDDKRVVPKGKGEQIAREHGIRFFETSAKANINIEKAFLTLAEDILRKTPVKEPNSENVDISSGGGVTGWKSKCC

[9] = target: T4, Acyl-CoA dehydrogenase family member 11 (Homo sapiens, UniProt Q709F0)
T4 sequence (Q709F0 whole entry): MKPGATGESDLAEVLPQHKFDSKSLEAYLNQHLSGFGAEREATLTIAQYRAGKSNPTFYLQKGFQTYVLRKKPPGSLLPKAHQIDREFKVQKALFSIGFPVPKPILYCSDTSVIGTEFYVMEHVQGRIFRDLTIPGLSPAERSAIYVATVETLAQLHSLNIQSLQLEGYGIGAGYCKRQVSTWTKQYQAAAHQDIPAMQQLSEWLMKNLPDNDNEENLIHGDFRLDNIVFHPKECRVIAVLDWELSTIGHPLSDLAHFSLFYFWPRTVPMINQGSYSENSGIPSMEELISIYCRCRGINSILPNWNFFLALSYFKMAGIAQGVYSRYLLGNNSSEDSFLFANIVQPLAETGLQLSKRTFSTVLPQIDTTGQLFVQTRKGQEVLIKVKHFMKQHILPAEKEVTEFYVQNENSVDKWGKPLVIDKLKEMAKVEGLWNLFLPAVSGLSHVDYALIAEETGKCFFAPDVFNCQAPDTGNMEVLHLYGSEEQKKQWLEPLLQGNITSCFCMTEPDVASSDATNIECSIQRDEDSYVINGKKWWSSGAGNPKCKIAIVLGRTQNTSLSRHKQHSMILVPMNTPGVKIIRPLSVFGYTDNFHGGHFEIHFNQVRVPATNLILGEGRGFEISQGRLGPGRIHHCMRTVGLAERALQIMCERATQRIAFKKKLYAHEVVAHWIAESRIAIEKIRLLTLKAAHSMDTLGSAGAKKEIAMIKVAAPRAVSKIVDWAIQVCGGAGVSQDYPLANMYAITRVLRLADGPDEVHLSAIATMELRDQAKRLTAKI
Note: in the data inactive means no Kd found up to 30 µM.

Chain of Bone morphogenetic protein receptor type-1B (O00238 whole entry): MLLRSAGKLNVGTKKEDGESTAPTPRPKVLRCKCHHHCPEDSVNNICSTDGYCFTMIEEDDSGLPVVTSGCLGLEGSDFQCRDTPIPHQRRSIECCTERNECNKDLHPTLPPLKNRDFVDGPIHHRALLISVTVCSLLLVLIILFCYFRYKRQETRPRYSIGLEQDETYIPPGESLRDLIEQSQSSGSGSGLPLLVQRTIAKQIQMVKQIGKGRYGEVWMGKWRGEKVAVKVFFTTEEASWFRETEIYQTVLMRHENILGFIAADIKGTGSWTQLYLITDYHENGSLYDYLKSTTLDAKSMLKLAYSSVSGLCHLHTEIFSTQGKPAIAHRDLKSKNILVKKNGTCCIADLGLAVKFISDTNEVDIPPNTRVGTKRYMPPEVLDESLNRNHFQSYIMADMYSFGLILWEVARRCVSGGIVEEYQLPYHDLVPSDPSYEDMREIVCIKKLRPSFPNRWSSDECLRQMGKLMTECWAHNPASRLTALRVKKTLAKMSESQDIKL

Kd [1] | Kd [2] | Kd [3] | Kd (Ephrin type-A receptor 5) | Kd [4] | Kd [5] | Kd [6] | Kd (LIM domain kinase 2) | Kd [7] | Kd (Midasin) | Kd (Myosin-14) | Kd [8] | Kd [9] | Compound
> 30 µM (inactive) | > 30 µM (inactive) | > 30 µM (inactive) | > 30 µM (inactive) | > 30 µM (inactive) | > 30 µM (inactive) | > 30 µM (inactive) | > 30 µM (inactive) | > 30 µM (inactive) | > 30 µM (inactive) | > 30 µM (inactive) | > 30 µM (inactive) | > 30 µM (inactive) | C=CC(=O)N1CCC[C@H](n2c(=O)n(-c3ccc(Oc4ccccc4)cc3)c3c(N)ncnc32)C1
1.44 µM (active) | > 30 µM (inactive) | > 30 µM (inactive) | > 30 µM (inactive) | 6.5 µM (active) | > 30 µM (inactive) | > 30 µM (inactive) | > 30 µM (inactive) | > 30 µM (inactive) | > 30 µM (inactive) | > 30 µM (inactive) | > 30 µM (inactive) | – | Nc1ncnc2c1c(-c1cccc(OCc3ccccc3)c1)cn2[C@H]1C[C@@H](CN2CCC2)C1 [AEW-541]
> 30 µM (inactive) | > 30 µM (inactive) | > 30 µM (inactive) | > 30 µM (inactive) | > 30 µM (inactive) | > 30 µM (inactive) | > 30 µM (inactive) | > 30 µM (inactive) | > 30 µM (inactive) | > 30 µM (inactive) | > 30 µM (inactive) | > 30 µM (inactive) | > 30 µM (inactive) | Cc1cc(C(=O)NOCCO)c(Nc2ccc(I)cc2F)n(C)c1=O [AZD-8330]
> 30 µM (inactive) | > 30 µM (inactive) | > 30 µM (inactive) | 0.401 µM | > 30 µM (inactive) | > 30 µM (inactive) | 0.85 µM | > 30 µM (inactive) | > 30 µM (inactive) | > 30 µM (inactive) | > 30 µM (inactive) | > 30 µM (inactive) | > 30 µM (inactive) | COc1cc2ncnc(Oc3cccc(NC(=O)Nc4cc(C(C)(C)C(F)(F)F)on4)c3)c2cc1OC [CEP-32496]
> 30 µM (inactive) | > 30 µM (inactive) | > 30 µM (inactive) | > 30 µM (inactive) | 28.6 µM (active) | > 30 µM (inactive) | > 30 µM (inactive) | > 30 µM (inactive) | > 30 µM (inactive) | > 30 µM (inactive) | > 30 µM (inactive) | > 30 µM (inactive) | > 30 µM (inactive) | COCC(=O)NC/C=C/c1ccc2ncnc(Nc3ccc(Oc4ccc(C)nc4)c(C)c3)c2c1 [CP-724714]
> 30 µM (inactive) | > 30 µM (inactive) | > 30 µM (inactive) | > 30 µM (inactive) | > 30 µM (inactive) | – | > 30 µM (inactive) | > 30 µM (inactive) | > 30 µM (inactive) | > 30 µM (inactive) | – | > 30 µM (inactive) | – | Cc1nc2cc(-n3ncc(C(=O)c4cc5ccccc5[nH]4)c3N)ccc2[nH]1 [FGFR INHIBITOR DEBIO 1347]
> 30 µM (inactive) | > 30 µM (inactive) | > 30 µM (inactive) | > 30 µM (inactive) | > 30 µM (inactive) | > 30 µM (inactive) | > 30 µM (inactive) | > 30 µM (inactive) | > 30 µM (inactive) | > 30 µM (inactive) | – | > 30 µM (inactive) | > 30 µM (inactive) | COc1ccc(S(=O)(=O)N(C(C)=O)c2ccccc2/C=C/c2cc[n+]([O-])cc2)cc1 [HMN-214]
> 30 µM (inactive) | > 30 µM (inactive) | > 30 µM (inactive) | > 30 µM (inactive) | 1.07 µM (active) | > 30 µM (inactive) | > 30 µM (inactive) | > 30 µM (inactive) | > 30 µM (inactive) | > 30 µM (inactive) | > 30 µM (inactive) | > 30 µM (inactive) | > 30 µM (inactive) | NC1(c2ccc(-c3nc4ccn5c(=O)[nH]nc5c4cc3-c3ccccc3)cc2)CCC1 [MK-2206]
> 30 µM (inactive) | > 30 µM (inactive) | > 30 µM (inactive) | > 30 µM (inactive) | > 30 µM (inactive) | > 30 µM (inactive) | > 30 µM (inactive) | > 30 µM (inactive) | > 30 µM (inactive) | > 30 µM (inactive) | > 30 µM (inactive) | > 30 µM (inactive) | > 30 µM (inactive) | COc1ncc(-c2ccc3nccc(-c4ccnnc4)c3c2)cc1NS(=O)(=O)c1ccc(F)cc1F [OMIPALISIB]
> 30 µM (inactive) | > 30 µM (inactive) | > 30 µM (inactive) | > 30 µM (inactive) | > 30 µM (inactive) | 0.208 µM (active) | > 30 µM (inactive) | > 30 µM (inactive) | 0.105 µM (active) | > 30 µM (inactive) | > 30 µM (inactive) | > 30 µM (inactive) | > 30 µM (inactive) | Cc1nc(Nc2n[nH]c3c2CN(C(=O)N[C@H](CN(C)C)c2ccccc2)C3(C)C)c2sccc2n1 [PF-03758309]
– | > 30 µM (inactive) | > 30 µM (inactive) | – | > 30 µM (inactive) | – | – | – | – | > 30 µM (inactive) | > 30 µM (inactive) | > 30 µM (inactive) | > 30 µM (inactive) | O=C(NOCCO)c1cc(CN2OCCCC2=O)c(F)c(F)c1Nc1ccc(I)cc1F [RO-4987655]
> 30 µM (inactive) | > 30 µM (inactive) | > 30 µM (inactive) | > 30 µM (inactive) | > 30 µM (inactive) | > 30 µM (inactive) | 0.172 µM (active) | > 30 µM (inactive) | > 30 µM (inactive) | > 30 µM (inactive) | > 30 µM (inactive) | > 30 µM (inactive) | – | C[C@@H](NC(=O)c1ncnc(N)c1Cl)c1ncc(C(=O)Nc2cc(C(F)(F)F)c(Cl)cn2)s1 [TOVORAFENIB]

Compound | Kd [1] | Kd [2] | Kd [3] | Kd (Ephrin type-A receptor 5) | Kd [4] | Kd [5] | Kd [6] | Kd (LIM domain kinase 2) | Kd [7] | Kd (Midasin) | Kd (Myosin-14) | Kd [8] | Kd [9]
CC(=O)c1cnc2ccc(-c3cc(Cl)c(O)c(Cl)c3)nc2c1N[C@H]1CC[C@H](CN(C)C)CC1 | 0.002 µM (active) | > 30 µM (inactive) | > 30 µM (inactive) | 0.075 µM (active) | 1.09 µM (active) | > 30 µM (inactive) | > 30 µM (inactive) | > 30 µM (inactive) | > 30 µM (inactive) | > 30 µM (inactive) | > 30 µM (inactive) | > 30 µM (inactive) | –
Cn1cc(C2=C(c3cn(C4CCN(Cc5ccccn5)CC4)c4ccccc34)C(=O)NC2=O)c2ccccc21 [ENZASTAURIN] | – | > 30 µM (inactive) | > 30 µM (inactive) | – | > 30 µM (inactive) | – | – | – | – | > 30 µM (inactive) | > 30 µM (inactive) | > 30 µM (inactive) | –
